Earlier results in patent US20150182479A1, “Method of delivering agmatine for medical treatment” (TOPAZ VENTURES, INC., priority 2013, published 2015).

Assays:
mouse = conditions: FST; for effect on antidepressant like effect of fluoxetine or paroxetine: agonists ip, agmatine-raising drugs icv; for effect of prior administration on antidepressant like effect of paroxetine and fluoxetine: paroxetine 10 mg/kg ip, fluoxetine 20 mg/kg ip
mice = conditions: for effect on morphine analgesia: agmatine 10 mg/kg i.p. 30 min before morphine s.c.; for effect on oxycodone analgesia: agmatine 10 mg/kg i.p. 30 min before oxycodone s.c.
thermal nociception = conditions: for effect of antagonist on response-latency enhancement by WIN 55212-2: WIN 55212-2 2 mg/kg, SR 141716A 5 mg/kg i.p., idazoxan 2 and 5 mg/kg, yohimbine 5 mg/kg

c1ccc2oc(C3=NCCN3)cc2c1 [2-(2-benzofuranyl)-2-imidazoline]
effect on antidepressant like effect of fluoxetine or paroxetine (mouse): potentiated

Cc1noc(NS(=O)(=O)c2cccc3c(N(C)C)cccc23)c1C [BMS 182874]
tail-flick latency, drug alone (mice; 360-min observation period): did not produce any change | effect of pretreatment on analgesic effect produced by agmatine alone (mice; tail-flick, mice): did not increase | effect on agmatine-induced potentiation of morphine and oxycodone analgesia (mice; tail-flick, mice): not altered | effect on morphine analgesia (mice; tail-flick, mice): potentiates | effect on oxycodone analgesia (mice; tail-flick, mice): potentiates

N=C(N)NCCC[C@@H](N)C(=O)O [D-arginine]
effect of prior administration on antidepressant like effect of paroxetine and fluoxetine (mouse): blocked

N=C(N)NCCC[C@H](N)C(=O)O [L-arginine]
effect on antidepressant like effect of fluoxetine or paroxetine (mouse): potentiated

Cc1c(C(=O)NN2CCCCC2)nn(-c2ccc(Cl)cc2Cl)c1-c1ccc(Cl)cc1 [SR 141716A]
effect of antagonist on response-latency enhancement by WIN 55212-2 (thermal nociception): blocked

N=C(N)NN [aminoguanidine]
effect on antidepressant like effect of fluoxetine or paroxetine (mouse): potentiated

NC(N)=NCCCCN=C(N)N [arcaine]
effect on antidepressant like effect of fluoxetine or paroxetine (mouse): potentiated

Clc1cccc(Cl)c1N=C1NCCN1 [clonidine]
effect on morphine analgesia (mice; tail-flick, mice): potentiate | effect on oxycodone analgesia (mice; tail-flick, mice): potentiate | effect on antidepressant like effect of fluoxetine or paroxetine (mouse): potentiated

CCC1(C2=NCCN2)Cc2ccccc2O1 (stereo not drawn) [efaroxan]
effect of prior administration on antidepressant like effect of paroxetine and fluoxetine (mouse): blocked

c1ccc2c(c1)OCC(C1=NCCN1)O2 (stereo not drawn) [idazoxan]
effect of antagonist on response-latency enhancement by combination of WIN 55212-2 and agmatine (thermal nociception; WIN 55212-2 2 mg/kg and agmatine, yohimbine 5 mg/kg i.p.): blocked | effect of antagonist on response-latency enhancement by WIN 55212-2 (thermal nociception): attenuated | effect on BMS 182874-induced potentiation of oxycodone analgesia (mice; tail-flick, mice): blocked | effect on agmatine-induced potentiation of morphine and oxycodone analgesia (mice; tail-flick, mice): blocked | effect of prior administration on antidepressant like effect of paroxetine and fluoxetine (mouse): blocked

COc1nc(C)nc(Cl)c1N=C1NCCN1 [moxonidine]
effect on antidepressant like effect of fluoxetine or paroxetine (mouse): potentiated

COC(=O)[C@@H]1[C@H]2C[C@H]3c4[nH]c5ccccc5c4CCN3C[C@@H]2CC[C@@H]1O [yohimbine]
effect of antagonist on response-latency enhancement by WIN 55212-2 (thermal nociception): not affected | effect on BMS 182874-induced potentiation of morphine analgesia (mice; tail-flick, mice): not affected | effect on BMS 182874-induced potentiation of oxycodone analgesia (mice; tail-flick, mice): not affected | effect on agmatine-induced potentiation of morphine and oxycodone analgesia (mice; tail-flick, mice): blocked

(−)-cis 3-(2-hydroxy-4-(1,1-dimethylheptyl)phenyl)-trans-4-(3-hydroxypropyl) cyclohexanol [CP55,940]
hot-plate response latency, drug given alone (thermal nociception; i.p., WIN 55212-2 or CP55,940 1, 2 or 3 mg/kg, agmatine 50 or 100 mg/kg): increased

difluoromethyl ornithine
effect on antidepressant like effect of fluoxetine or paroxetine (mouse): potentiated
